Values after ≈ are worked out from the molar mass of the structure shown.
Columns and labels:
[1] = Mechanical stability: pressurization method; type: physicochemical; conditions: 40 MPa held for 1 min, 5 mm die; XRPD
Experimental: Pressurization method: Maleate crystalline form A was weighed and transferred into a 5 mm-diameter die. The upper piston was then manually driven down into the die until a pressure of 40 MPa was reached and held for 1 min. Subsequently, the sample was removed and manually ground into a powder. Finally, the resulting powder was analyzed by XRPD.

[2] = Mechanical stability: jet milling; type: physicochemical; conditions: feed and milling pressure 5.5 bar, 23 °C; XRPD
Experimental: The milled powder was then analyzed by XRPD and PLM, with results shown in Figure 27 and Figure 28, respectively.

[3] = Dynamic solubility in different media (HPLC); type: physicochemical; conditions: for Crystalline Form Change / Solubility / pH: 24 h; for Crystalline Form Change: XRPD of precipitated solids; for Solubility: 37°C; for solubility at 24 h: 37 °C, thermodynamic from solid; for pH: pH of supernatant
Experimental: The preparation method of simulated gastrointestinal fluid involved in the present disclosure is: SGF: Transfer 2.02 g of sodium chloride into a 1000 mL beaker and add 950 mL of purified water to dissolve. Next, adjust the pH to 1.2 with 12 N hydrochloric acid. Transfer the solution to a 1000 mL volumetric flask and make up to 1000 mL with purified water.
FeSSIF: Transfer 4.04 g of sodium hydroxide, 8.65 g of acetic acid, and 11.87 g of sodium chloride into a 1000 mL volumetric flask, and dissolve with 950 mL of purified water. Titrate the obtained solution to pH 5.0 with 1M sodium hydroxide or 1M hydrochloric acid aqueous solution, and then make up to 1000 mL with purified water. Finally, weigh 11.20 g of SIF powder, add it to the above 1000 mL of pH 5.0 solution, and stir magnetically until clear.
(§1) A total of 10 mg of maleate crystalline form A was transferred into a dry, clean 4 mL glass vial. Then, 1 mL of simulated gastric fluid (SGF), fed state simulated intestinal fluid (FeSSIF), or purified water was added to the vial. All vials were placed on a shaker and agitated at 200 rpm at 37°C.
At the predetermined time point (24 h), 200 µL of the sample was withdrawn from the vial into a centrifuge tube and centrifuged at 90,000 rpm for 5 min. An appropriate amount of the supernatant was then diluted and analyzed by HPLC to determine the solubility.
The remaining 800 µL of suspension in the vial was centrifuged at 8000 rpm for 10 min. The pH of the resulting supernatant was measured, and the precipitated solids were vacuum-dried at 40°C for approximately 16 h. The dried precipitated solids were then characterized by X-ray powder diffraction.
as §1, with “p-toluenesulfonate” for “maleate”
At the predetermined time point (24 h), 200 µL of the sample was withdrawn from the vial into a centrifuge tube and centrifuged at 90,000 rpm for 5 min. An appropriate amount of the supernatant was then diluted and analyzed by high performance liquid chromatography to determine the solubility.

[4] = Physicochemical stability on open storage (XRPD and HPLC); conditions: for Crystalline Form Change: merged cell for all storage conditions (40°C/75%RH, 60 °C, 25°C/60%RH, open) and times (2 and 4 weeks), XRPD
Experimental: The high performance liquid chromatography (HPLC) method for determining enantiomeric excess (%) used in the present application is shown in Table 5.
The purity testing method described in the present application is shown as follows.
(§2) For chemical stability studies, two open samples were prepared at each time point for each condition. Approximately 2 mg of maleate crystalline form A was transferred into a 20 mL glass vial, which was then covered with perforated aluminum foil to serve as an open sample. Samples were stored at 25°C/60% RH, 40°C/75% RH, and 60°C.
as §2, with “For physical” for “For chemical”, “Approximately 10” for “Approximately 2”, “was” for “was then”
All samples were stored for 4 weeks under the specified storage conditions. At predetermined time points (initial, 2 weeks, and 4 weeks), the corresponding samples were withdrawn and subject to chemical and physical evaluations, respectively. The physicochemical stability was assessed by XRPD and HPLC.
as §2, with “p-toluenesulfonate” for “maleate”
as §2, with “For physical” for “For chemical”, “Approximately 10” for “Approximately 2”, “of p-toluenesulfonate” for “of maleate”, “was” for “was then”, “and 60°C, respectively.” for “and 60°C.”

[5] = Hygroscopicity by dynamic vapor sorption (DVS) test; type: physicochemical; conditions: for hygroscopic weight gain: DVS, 25°C, from 0% RH to 80% RH; for crystalline form after the DVS test: XRPD before and after DVS test
Experimental: Moisture adsorption and desorption data were obtained using a dynamic vapor sorption device (Model TA Discovery SA). Samples were equilibrated at 25°C/0% RH for 300 min at the start of the experiment. Thereafter, humidity was varied from 0% to 95% RH in 5% RH increments, with nitrogen used to control and maintain the humidity. Equilibration during testing was defined as a mass change rate of < 0.02% per minute over 10 min, with a maximum equilibration time of 120 min.
From 0% RH to 80% RH, the hygroscopic weight gain was approximately 0.25%, indicating very low hygroscopicity.

[6] = Stability of the crystalline form in the formulation (tablet compression with microcrystalline cellulose); type: physicochemical; conditions: 50% (w/w) with microcrystalline cellulose PH102, tablets compressed at 4.2 kN and 9.2 kN; XRPD
Experimental: Equal amounts of maleate crystalline form A and microcrystalline cellulose PH102 were weighed to prepare a powder formulation comprising 50% (w/w) maleate crystalline form A, and the two components were mixed thoroughly.
A total of 200 mg of the uniformly mixed powder was transferred into an 8 mm-diameter die of a rotary tablet press. One tablet was compressed at 4.2 kN and another at 9.2 kN.
The resulting tablets were characterized for weight and hardness.

SMILES	Crystalline Form Change ([3]; FeSSIF)	Solubility ([3]; H2O) [µg/mL]	Crystalline Form Change ([3]; H2O)	Crystalline Form Change ([3]; SGF)	pH ([3]; FeSSIF)	pH ([3]; H2O)	pH ([3]; SGF)	Appearance ([4]; 25°C/60%RH (Open), 2 weeks)	Purity (%) ([4]; 25°C/60%RH (Open), 2 weeks)	ee (%) ([4]; 25°C/60%RH (Open), 2 weeks)	Appearance ([4]; 25°C/60%RH (Open), 4 weeks)	Purity (%) ([4]; 25°C/60%RH (Open), 4 weeks)	ee (%) ([4]; 25°C/60%RH (Open), 4 weeks)	Appearance ([4]; 40°C/75%RH (Open), 2 weeks)	Purity (%) ([4]; 40°C/75%RH (Open), 2 weeks)	ee (%) ([4]; 40°C/75%RH (Open), 2 weeks)	Appearance ([4]; 40°C/75%RH (Open), 4 weeks)	Purity (%) ([4]; 40°C/75%RH (Open), 4 weeks)	ee (%) ([4]; 40°C/75%RH (Open), 4 weeks)	Appearance ([4]; 60 °C (Open), 2 weeks)	other results
CN(C(=O)c1ccc2nc(N)c3cncn3c2c1)[C@@H]1COc2cc(C(F)(F)F)ccc21 [Maleate crystalline form A, (S)-4-amino-N-methyl-N-(6-(trifluoromethyl)-2,3-dihydrobenzofuran-3-yl)imidazo[1,5-a]quinoxaline-8-carboxamide]	None	42.12	None	None	4.83	4.17	0.96	Off-white powder	99.68	100.00	Off-white powder	99.67	100.00	Off-white powder	99.69	100.00	Off-white powder	99.67	100.00	Off-white powder	crystalline form after pressurization [1]: retained its crystalline form; crystalline form after jet milling [2]: retained its crystalline form; solubility at 24 h ([3]; fed state simulated intestinal fluid (FeSSIF), pH 5, fessif, FeSSIF): 258 µg/mL; solubility at 24 h ([3]; simulated gastric fluid (SGF), pH 1.2, simulated gastric fluid, SGF): 443 µg/mL; Purity (%) ([4]; 60 °C (Open), 2 weeks): 99.69%; ee (%) ([4]; 60 °C (Open), 2 weeks): 100.00%; Appearance ([4]; 60 °C (Open), 4 weeks): Off-white powder; Purity (%) ([4]; 60 °C (Open), 4 weeks): 99.67%; ee (%) ([4]; 60 °C (Open), 4 weeks): 100.00%; Appearance ([4]; Initial): Off-white powder; Purity (%) ([4]; Initial): 99.66%; ee (%) ([4]; Initial): 100.00%; Crystalline Form Change [4]: None; hygroscopic weight gain [5]: approximately 0.25%; crystalline form after the DVS test [5]: did not change; crystallinity in the formulation [6]: remained relatively stable
CN(C(=O)c1ccc2nc(N)c3cncn3c2c1)[C@@H]1COc2cc(C(F)(F)F)ccc21 [p-toluenesulfonate crystalline form A, (S)-4-amino-N-methyl-N-(6-(trifluoromethyl)-2,3-dihydrobenzofuran-3-yl)imidazo[1,5-a]quinoxaline-8-carboxamide]	None	248.78 (≈ 582 µM)	None	None	4.78	3.19	0.98	Off-white powder	99.83	100.00	Off-white powder	99.84	100.00	Off-white powder	99.84	100.00	Off-white powder	99.80	100.00	Off-white powder	Solubility ([3]; FeSSIF): 365.38 µg/mL (≈ 855 µM); Solubility ([3]; SGF): 293.98 µg/mL (≈ 688 µM); Purity (%) ([4]; 60 °C (Open), 2 weeks): 99.66%; ee (%) ([4]; 60 °C (Open), 2 weeks): 100.00%; Appearance ([4]; 60 °C (Open), 4 weeks): Off-white powder; Purity (%) ([4]; 60 °C (Open), 4 weeks): 99.50%; ee (%) ([4]; 60 °C (Open), 4 weeks): 100.00%; Appearance ([4]; Initial): Off-white powder; Purity (%) ([4]; Initial): 99.81%; ee (%) ([4]; Initial): 100.00%; Crystalline Form Change [4]: None; hygroscopic weight gain [5]: approximately 0.37%; crystalline form after the DVS test [5]: did not change

Source: patent EP4818169A1, “CRYSTAL FORM OF COMPOUND SALT, PREPARATION METHOD THEREFOR AND USE THEREOF” (Apeiron Therapeutics (Hong Kong) Ltd., priority 2024, dated 2025)
